# Measurements reported in a melting point compilation (Tetko et al.; mined from patent text by program, amines drawn as free bases though some values may be those of a salt).
# Residues, ends and D or L forms follow the SMILES beside them. *: point of attachment. Cbz = O=C(OCc1ccccc1)*
row,SMILES,melting point [°C]
1,O=C(CNc1c(C(=O)O)[nH]c2cc(Cl)cc(Cl)c12)c1ccc([N+](=O)[O-])cc1,270 to 272
2,Cc1ccc(N2N=C3c4ccncc4CCC3CC2=O)cc1 (stereo unspecified),152 to 153
3,O=C1Nc2ccc(Cl)c(Cl)c2C1=O,239 to 240
4,CC(C)Cn1c(=O)n(C)c(=O)c2cc(C(=O)c3cccc4ccccc34)sc21,150
5,COC(=O)c1sc2c(c1O)CCCC2,55 to 58
6,Cc1nc(O)nc(C)c1N1CCCn2c1nc1c(Cl)ccc(C(OC(F)F)C(F)(F)F)c12 (stereo unspecified),208 to 210
7,Cc1cc2n(n1)C(c1cccc([N+](=O)[O-])c1)N=N2 (stereo unspecified),269 to 275
8,O=C1COc2cc(NC(=O)C(=O)N3CCC(Oc4ccccc4)CC3)ccc2N1,196 to 199
9,Cc1c(-c2ccc(NC(=O)OCC(C)C)cc2)nc2n1CCc1ccccc1C2OC1CCN(C)CC1 (stereo unspecified),196
10,O=S(=O)(Nc1ccc2c(OCc3csc(-c4ccc(C(F)(F)F)cn4)n3)cccc2c1)C(F)(F)F,197 to 198
11,Cc1ccc(-c2[nH]c(-c3cccnc3)nc2C(=O)O)cc1,140 to 142
12,Oc1cc(Br)c2oc(-c3cc(F)c(O)c(F)c3)nc2c1,270 to 272
13,CN(C)C1(c2ccccc2)CCC(=O)CC1,104 to 108
14,CSc1cc2c(cc1C(F)(F)F)N(C(=O)Nc1cccc(OCCCN(C)C)c1)CC2,149 to 151
15,CC(=O)OCc1coc(-c2cccc(C3=Nc4ccc(-n5cccc5)cc4NC(=O)C3)c2)n1,206 to 207
16,O=S(=O)(c1ncc(Cl)cn1)c1cccs1,116 to 117
17,O=C(O)C(=O)c1cc2ccccc2s1,176
18,C=CCN(CC=C)c1nc(NC(C)=O)n2oc(=O)nc2n1,164 to 165
19,CC(=Cc1ccc(O)c(Br)c1)[N+](=O)[O-],122 to 124
20,C[C@@H]1NC(=O)O[C@H]1c1ccc(C(C)(C)C)cc1,199 to 200
21,CCCCCCC(=O)Nc1cccc2c1C(=O)N(C1(C)CCC(=O)NC1=O)C2=O (stereo unspecified),172 to 174
22,CC(C)(CC(O)(C(=O)Nc1ccc2c(c1Br)COC2=O)C(F)(F)F)c1ccccc1 (stereo unspecified),187 to 194
23,COc1ccc(-c2cnoc2-c2ccc(OC(C)C)cc2O)cc1,148 to 149
24,CC(=O)Cc1ccc(OCC(O)CN2CCN(c3ccccc3)CC2)cc1 (stereo unspecified),121 to 122

row,SMILES,melting point [°C]
1,Oc1cccc2cc3ccccc3nc12,115
2,Cc1cc(=O)[nH]c(NC(=N)Nc2ccccc2)n1,265
3,CSc1ccc(-c2n[nH]c(=S)cc2-c2ccc(F)cc2)cc1,219
4,CCOP(=O)(Cc1ccc(C(=S)Nc2nc3c(s2)Cc2c(Cl)cccc2-3)cc1)OCC,180
5,O=C(O)c1ccccc1Oc1ccc(C(F)(F)F)cc1NS(=O)(=O)c1ccccc1,177
6,NNc1cc2c(nn1)CCN(C(=O)c1cccc(Cl)c1)C2,178 to 180
7,CCOC(=O)/C=C/C=C/c1ccc(OC(C)C)cc1,64 to 65
8,CC(=O)NCc1ccc(C(=O)CBr)s1,129 to 131
9,CCCOc1nc2sc(Cl)cc2c(=O)n1CCC,62 to 65
10,Cc1ccccc1N1CNC(=O)C12CCN(C(=O)c1cc(C(F)(F)F)cc(C(F)(F)F)c1)CC2,164 to 168
11,CC(CC(=O)NCc1ccccc1)n1c(C(F)(F)F)nc2cc(F)c(-n3c(=O)cc(C(F)(F)F)n(C)c3=O)cc21 (stereo unspecified),191 to 193
12,CS(=O)(=O)c1ccc(-c2cnn(Cc3ncc(Cl)s3)c(=O)c2-c2ccc(F)cc2)cc1,185 to 186
13,CCOC(=O)c1cc(-c2ccc(-c3ccco3)cc2)n(-c2ccc(S(C)(=O)=O)c(F)c2)n1,172
14,CCCn1nc2c(N)nc3ccccc3c2c1CCCCS(N)(=O)=O,211 to 213
15,Cc1ccc(CNc2cccc(C(=O)O)c2C(=O)O)o1,305 to 307
16,COc1ccc(C(C)=NNc2ccc(C3=NNC(=O)CC3)cc2)cc1,204 to 207
17,Cc1cc(C)cc(Sc2c(C(C)C)c(=O)[nH]c(=O)n2CC2=CCC(CO)C2)c1 (stereo unspecified),147 to 148
18,CSC(Nc1ccc(NC(=O)OC(C)(C)C)cc1)=C(C#N)C#N,190
19,CCCCCC(=O)c1c(CSc2nccn2C)nc2cc(OC)c(OC)cc2c1-c1ccc(OC)c(OC)c1,128 to 129
20,IC#CCOCc1cccnc1,109 to 110
21,COC(=O)C=Cc1ccc(OCC2CCCCC2)cc1,104
22,O=C(OCc1ccccc1)c1cc2cc(Br)ccc2nn1,171
23,Cc1cc(I)ccc1Nc1c(-c2nnc(N)o2)cc2c(ncn2C)c1F,258 to 260
24,CC(=O)SCCC1(C)C(=O)N2CCCC(C(=O)OC(C)(C)C)N2C1=O (stereo unspecified),67 to 70

row,SMILES,melting point [°C]
1,CC(C)(C)NS(=O)(=O)c1ccccc1-c1ccc(NC(=O)C(=O)O)cc1,159
2,CC(=O)N1c2ccc(-c3ccc(C#N)cc3)cc2C(Nc2ccc(F)cc2)CC1C (stereo unspecified),140
3,C=C(F)c1c(C(=O)OC)nc(Cl)c(F)c1N,98 to 100
4,Cc1ccc(S(=O)(=O)OCCC2COc3cc(Cl)c(Cl)cc3O2)cc1 (stereo unspecified),135 to 138
5,CCCCCCCCCCCCCCCCCCN(C(=O)OC(C)(C)C)c1ccc(CCC(=O)O)cc1,46 to 48
6,C=C(C(=O)O)c1ccc(Cl)cc1,110
7,Nc1ncc(-c2cnc3ccc(-c4ccc(OCC5(NC(=O)OCc6ccccc6)COC5)cc4)nn23)cc1C(F)(F)F,202 to 203
8,N#Cc1ccc(OCCCc2cn(C(c3ccccc3)(c3ccccc3)c3ccccc3)cn2)cc1,187 to 188
9,CC1(C)OC(c2ccc(S(C)(=O)=O)cc2)=C(c2cccc(C(F)(F)F)c2)C1=O,115 to 116
10,CC(C)N1CCN(C(=O)c2ccc(-c3ccc(=O)n(C)n3)cc2)CC1,131 to 132
11,O=c1[nH]c2ccccc2c2ccnn12,253 to 254
12,O=C(O)c1ccccc1Sc1ccc([N+](=O)[O-])cc1[N+](=O)[O-],179 to 181
13,COc1cc(NC(=O)Nc2ccccc2)cc(Cl)n1,161 to 162
14,CCOC(=O)c1cc2cc(C(F)(F)F)cnc2n1Cc1ccccc1,72 to 73
15,Fc1ccccc1-c1ccnc2ncnn12,168 to 172
16,CCn1ncc2c(N(C)Cc3ccccc3)c3ccccc3nc21,175 to 177
17,Cc1cccc(NC(=O)C2=C(O)c3ccc4ccccc4c3S(=O)(=O)N2)c1,245
18,Cc1cc(-c2ccc(C#N)cc2)c(C)n1Cc1cnc(Cl)c(COC(=O)CCC(=O)O)c1,201 to 204
19,COCc1cc(NC(=O)OC)no1,90 to 91
20,COc1ccccc1NC(=O)c1ccc(CO)cc1,104 to 106
21,CC(C)N(Cc1ccccc1)c1ncnc2c(N3CCOCC3)nc(N3CCC(N(C)C)CC3)nc12,122 to 125
22,CCOCc1nnc2n1-c1ccc(Cl)cc1C(c1ccccc1)=NC2,168 to 170
23,Cc1sc(-c2ccc(-c3ccccc3)cc2)nc1CCOc1ccc(OC(C)(C)C(=O)O)cc1,174
24,CC(C)(C)c1cc(NC(=O)Nc2ccc(-c3c(C(N)=O)[nH]c4ccccc34)cc2)no1,176 to 178

row,SMILES,melting point [°C]
1,CCn1c(=O)c(-n2c(C(N)=O)nnc2-c2ccc(C#N)cc2)c(C)n(-c2cccc(C(F)(F)F)c2)c1=O,256
2,COc1ccccc1NS(=O)(=O)c1ccc(COC2CCCCO2)cc1 (stereo unspecified),67 to 70
3,CCCCC1C(C(=O)/C=C/c2ccc(OC)cc2)C(=O)CC(c2ccc(OC)cc2)C1[N+](=O)[O-] (stereo unspecified),127 to 129
4,CCOCc1nc2c(N)nc3ccc(OCc4ccccc4)cc3c2n1CCCCNC(=O)N1CCOCC1,150 to 153
5,CCCNC(=O)C(C)Cc1ccc2c(c1)c(Cc1ccc(C(=O)NS(=O)(=O)c3ccccc3C)cc1OC)cn2CCC (stereo unspecified),95 to 113
6,Cc1cc(CCCCCOc2c(Cl)cc(-c3nnn[nH]3)cc2Cl)on1,122 to 123
7,COc1ccc(CC(=O)NCCc2ccccc2)cc1OC,123 to 124
8,COC(=O)C(CO)NC(=O)C(Cc1c[nH]c2ccccc12)NC(=O)OCc1ccccc1 (stereo not drawn) (Cbz-Trp-Ser-OMe; configuration not given here),133 to 135
9,CC(=O)OC1N=C(c2ccccc2F)c2cc(Cl)ccc2-n2c1cnc2C (stereo unspecified),201 to 202
10,O=C1c2ccccc2C(=O)N1Cc1noc(-c2ncn3c2[C@@H]2CCN2C(=O)c2c(Cl)cccc2-3)n1,189 to 192
11,COc1ccc2c(c1)C(=O)CC1C2C(OC(=O)C(C)(C)C)CC2(C)C(OC(=O)C(C)(C)C)CCC12 (stereo unspecified),183 to 184
12,CCOC(=O)CC1C(=O)N(CCc2c[nH]c3ccccc23)CCN1C(=O)c1ccccc1 (stereo unspecified),144
13,NC1=NS(=O)N=C1NCCCN(Cc1ccsc1)c1ccccn1 (stereo unspecified),140 to 142
14,COc1ccc(N(C=C(C#N)C#N)N=C(C#N)C#N)cc1,143 to 145
15,CC(C)OCCNC(=O)c1ccn2nc(-c3ccccc3)c(-c3ccc(=O)n(C(C)C)n3)c2c1,124 to 125
16,COC(=O)CC1CCc2cc(C(=O)c3ccccc3)c(O)cc21 (stereo unspecified),148 to 150
17,O=C(O)c1cccc(-c2ncn(-c3ccc(N4CCCC4=O)cc3)n2)c1,270 to 273
18,CCCCN1C(=O)C2=C(c3ccc(Cl)cc3)N(CCCC)C(=O)C2=C1c1ccc(Cl)cc1,176 to 177
19,CC(C)NCc1ccc(Cn2ccc(OCc3ccc(F)cc3F)c(Cl)c2=O)cc1,146 to 151
20,CS(=O)c1ccc(-c2nc(=O)c3ccccc3s2)cn1 (stereo unspecified),195 to 196
21,O=C1NC(c2ccccc2)(c2ccccc2)C(=O)N1CCl,161 to 162
22,CC(C)c1ccc(C(=O)C2CCc3ccccc3C2)c(C(C)C)c1OS(N)(=O)=O (stereo unspecified),137 to 139
23,CC(=O)OC1CSC(Oc2cccnc2-c2ccccc2)C(OC(C)=O)C1OC(C)=O (stereo unspecified),69 to 101
24,CCCCOc1cc(C=C[N+](=O)[O-])c([N+](=O)[O-])cc1OCc1ccccc1,152
